Test results taken from PMC8776094, “Reactive Oxygen Species Production Is Responsible for Antineoplastic Activity of Osmium, Ruthenium, Iridium and Rhodium Half-Sandwich Type Complexes with Bidentate Glycosyl Heterocyclic Ligands in Various Cancer Cell Models” (International Journal of Molecular Sciences, 2022).
pIC50: −log10 of the molar value.

Legend:
[1] = tested on: A2780 ovarian cancer cells; test: SRB assay, 48 h, cytostasis, A2780; type: cell-based; settings: for A2780 Max. Inh. (%): ND = not detected; for cytostatic activity on A2780 cells in SRB assay (in words): 48 h treatment
Experimental: (§1) The compounds were tested between 0.001694 and 33.3333 µM, using a 4-hour-long MTT test to assess rapid toxicity and a 48-hour-long SRB assay to assess the long-term effects of the inhibition of proliferation (cytostasis). The MTT assay assesses the activity of mitochondrial complex I and detects rapid, direct toxicity, as well as indicating apoptosis and necrosis. The SRB assay measures the total protein content that is proportional to cell numbers; therefore, the assay can detect changes in cell numbers and can thus be used as a readout for cell proliferation. The SRB assay was performed after 48 h of treatment (with the exception of L428 cells, which were tested for 96 h due to their slower proliferation rate). In this setting, the SRB assay informs us of long-term changes to cell proliferation. We assessed the maximal inhibition within that concentration range, and descriptive statistics were performed. We performed a one-way ANOVA, followed by the Kruskal–Wallis test, regardless of the normal or non-normal distribution of the data. Due to the large number of significance values, the results of the significance calculations are provided in an Excel spreadsheet at https://figshare.com/s/28d14597d5041f08eb08 (accessed on 6 January 2022), among other primary data of the study. Where possible, nonlinear regression was performed on the curves to determine the IC50 values ((inhibitor) vs. response—variable slope (four parameters) method with Graphpad v8.0.1). […] In Table 5, we added the IC50 values that we determined for a set of 4 active ruthenium half-sandwich complexes we identified previously, to be used in subsequent structure-activity relationship (SAR) analyses.
A2780 cells were cultured in RMPI 1640 medium, supplemented with 10% fetal calf serum, 2 mM glutamine, and 1% penicillin-streptomycin.
(§2) The assay was performed similarly to the method used in [73]. Cells were seeded in 96-well plates the day before the assay. Cells were treated with the compounds for 48 h, with the exception of L428, where 96 h of treatment was applied. Cells were fixed with 10% trichloroacetic acid (TCA). Fixed cells were washed in distilled water 3 times, followed by staining with SRB (0.4 m/V% dissolved in 1% acetic acid) for 10 min. The stained cells were washed in 1% acetic acid 5 times; the acetic acid was removed, and the cells were left to dry. Protein-bound SRB was released by adding 100 µL 10 mM Tris base. Plates were measured in a plate photometer (Thermo Scientific Multiscan GO spectrophotometer, Waltham, MA, USA) at 540 nm. On each plate, wells were designed to contain untreated cells. In calculations, the readings for these wells were considered as 1 and all readings were expressed relative to these values.
(§3) Statistical analysis was performed using the 8.0.1 version of Graphpad Prism. Values were tested for normal distribution, using the d’Agostino and Pearson normality test. When necessary, values were log-normalized or were normalized using the Box-Cox normalization method or using a two-step transformation, as indicated in the figure captions. Nonlinear regression was performed using the built-in “[Inhibitor] vs. Response—Variable slope (four parameters), least-square fit” utility of Graphpad, yielding the IC50 and Hill slope values.

[2] = Determination of the distribution coefficients (logD), n-octanol/PBS; type: physicochemical; settings: n-octanol / PBS pH = 7.40, rt
Experimental: Before starting the experiments, n-octanol was saturated with an aqueous PBS solution (pH = 7.40) and vice versa. A solution of the appropriate complex (approximately 0.2–0.3 mg) in a mixture of 2.50 mL pre-saturated n-octanol and 2.50 mL pre-saturated PBS buffer was made, and the resulting mixture was then vigorously stirred for 3 days at rt. Based on our previous NMR stability experiments, this time is long enough to reach equilibrium among the various ionic complex species. Due to the lipophilic/hydrophilic features of the complexes, those with benzoyl protection could primarily be found in the n-octanol, while the complexes with O-peracetylated and O-deprotected ligands were in the aqueous PBS phase. The corresponding separated solution was centrifuged (ScanSpeed 406G instrument, 4000 RPM for 5 min) and the absorption of the ”stock solution” was determined (VWR UV-1600PC Spectrophotometer, 270–420 nm). Then, 2.00 mL of the stock solution was vigorously stirred with 16.00 mL of pre-saturated n-octanol or PBS solution. After one day had passed, the phases were separated, centrifuged, and the absorption of the solution was measured again. From the absorption difference of the stock solutions, the distribution coefficient (D) was determined using previously described formulae [71].

[3] = tested on: ID8 ovarian cancer cell line; test: MTT reduction assay, 4 h, rapid toxicity, ID8; type: cell-based; settings: MTT assay, 4 h treatment; ND = not detected or cannot be calculated
Experimental: as §1
(§4) ID8 cells were cultured in a high-glucose DMEM (4.5 g/L glucose) medium, supplemented with 4% fetal calf serum, 2 mM glutamine, 1% penicillin-streptomycin, and 1% ITS supplement (I3146).
The MTT reduction assay measures the activity of mitochondrial complex I and can be used to detect apoptosis and necrosis. The assay was performed similarly to the method used in [72]. Briefly, cells were plated in 96-well plates the day before the assay. Cells were treated with the compounds for 4 h, then MTT was added at 0.5 mg/mL final concentration and the cells were incubated at 37 °C in a cell incubator. The culture media were removed and the reduced MTT dye was dissolved in dimethyl-sulfoxide (DMSO) and plates were measured in a plate photometer (Thermo Scientific Multiscan GO spectrophotometer, Waltham, MA, USA) at 540 nm. On each plate, wells were designed to contain untreated/vehicle-treated cells. In the calculations, the readings for these wells were considered as 1 and all readings were expressed relative to these values.

[4] = tested on: Capan2, a pancreatic adenocarcinoma cell line; test: SRB assay, 48 h, cytostasis, Capan2; type: cell-based; settings: SRB assay, ND = not detected
From the text: We turned next to assessing whether the cytostatic activity of Os-3, Os-4, Os-5, Os-6 and Ir-6 complexes is specific for ovarian cancer cell lines or if they may be active on other cell lines. To that end, we tested the complexes on another carcinoma cell line (Capan2, a pancreatic adenocarcinoma cell line), on a sarcoma cell line (Saos, an osteosarcoma cell line) and on a lymphoma cell line (L428, a Hodgkin’s lymphoma cell line).
Capan2 cells were maintained in MEM, 10% fetal bovine serum, 1% penicillin/streptomycin, and 2 mM glutamine.
as §2, §3
Here, 1.5 × 10^3 Capan2, 3 × 10^3 Saos cells and 10^4 L428 cells were plated onto 96-well plates. Capan2 and Saos cells were treated with the compounds in the concentrations indicated for 48 h for an SRB assay. L428 cells were treated with the compounds in the concentrations indicated for 96 h, then cells were counted using conventional microscopy and a Burker chamber. Data are represented as average ± SD, from three biological replicates; individual assays were performed in duplicate. Values were normalized for vehicle-treated cells; the absorbance for vehicle-treated cells is equal to 1. A one-way ANOVA, followed by a Kruskal–Wallis test, was performed individually for each compound. The results of the statistical analysis are presented in an Excel spreadsheet at https://figshare.com/s/28d14597d5041f08eb08 (accessed on 6 January 2022). Nonlinear regression was performed on the data.

[5] = tested on: ID8 ovarian cancer cell line; test: SRB assay, 48 h, cytostasis, ID8; type: cell-based; settings: for ID8 Max. Inh. (%): SRB assay, 48 h, ND = not detected; for cytostatic activity on ID8 cells, SRB assay (in words): 48 h treatment
Experimental: as §1, §4, §2, §3

Compound	A2780 Max. Inh. (%) ([1]; SRB assay, 48 h)	LogD [2]	also measured
Cc1c(C)c(C)[c-](C)c1C.F[P-](F)(F)(F)(F)F.O=C(OCC1OC(c2noc(-c3ccccn3)n2)C(OC(=O)c2ccccc2)C(OC(=O)c2ccccc2)C1OC(=O)c1ccccc1)c1ccccc1.[Cl][Ir+2] (mixture of isomers) [Ir-1]	35.13%	2.87	
Cc1c(C)c(C)[c-](C)c1C.F[P-](F)(F)(F)(F)F.OCC1OC(c2noc(-c3ccccn3)n2)C(O)C(O)C1O.[Cl][Ir+2] (mixture of isomers) [Ir-2]	36.38%	−1.15	
Cc1c(C)c(C)[c-](C)c1C.F[P-](F)(F)(F)(F)F.O=C(OCC1OC(c2nnc(-c3ccccn3)o2)C(OC(=O)c2ccccc2)C(OC(=O)c2ccccc2)C1OC(=O)c1ccccc1)c1ccccc1.[Cl][Ir+2] (mixture of isomers) [Ir-3]	69.25%	1.46	Maximum Inhibition (%) ID8 [3]: 26.11%; cytostatic activity on A2780 cells in SRB assay (in words) [1]: mild; Capan2 Max. Inh. (%) [4]: 27.62%
Cc1c(C)c(C)[c-](C)c1C.F[P-](F)(F)(F)(F)F.O=C(OCC1OC(c2nnc(-c3ccccn3)o2)C(OC(=O)c2ccccc2)C(OC(=O)c2ccccc2)C1OC(=O)c1ccccc1)c1ccccc1.[Cl][Ir+2] (mixture of isomers) [Ir-4]	32.45%	1.46	
Cc1c(C)c(C)[c-](C)c1C.F[P-](F)(F)(F)(F)F.O=C(OC1COC(c2nnc(-c3ccccn3)o2)C(OC(=O)c2ccccc2)C1OC(=O)c1ccccc1)c1ccccc1.[Cl][Ir+2] (mixture of isomers) [Ir-5]	45.45%	1.80	ID8 Max. Inh. (%) [5]: 53.15%
CC(=O)OCC1OC(c2nnc(-c3ccccn3)o2)C(OC(C)=O)C(OC(C)=O)C1OC(C)=O.Cc1c(C)c(C)[c-](C)c1C.F[P-](F)(F)(F)(F)F.[Cl][Ir+2] (mixture of isomers) [Ir-7]	26.91%	−0.75	
Cc1c(C)c(C)[c-](C)c1C.F[P-](F)(F)(F)(F)F.OCC1OC(c2nnc(-c3ccccn3)o2)C(O)C(O)C1O.[Cl][Ir+2] (mixture of isomers) [Ir-8]		−1.60	
Cc1c(C)c(C)[c-](C)c1C.F[P-](F)(F)(F)(F)F.OCC1OC(c2nnc(-c3ccccn3)o2)C(O)C(O)C1O.[Cl][Ir+2] (mixture of isomers) [Ir-9]	21.29%	−1.47	
Cc1c(C)c(C)[c-](C)c1C.F[P-](F)(F)(F)(F)F.OC1COC(c2nnc(-c3ccccn3)o2)C(O)C1O.[Cl][Ir+2] (mixture of isomers) [Ir-10]	23.12%	−1.56	
CC(=O)OCC1OC(n2cc(-c3ccccn3)nn2)C(OC(C)=O)C(OC(C)=O)C1OC(C)=O.Cc1c(C)c(C)[c-](C)c1C.F[P-](F)(F)(F)(F)F.[Cl][Ir+2] (mixture of isomers) [Ir-11]	20.26%		cytostatic activity on A2780 cells in SRB assay (in words) [1]: biologically inactive
Cc1c(C)c(C)[c-](C)c1C.F[P-](F)(F)(F)(F)F.OCC1OC(n2cc(-c3ccccn3)nn2)C(O)C(O)C1O.[Cl][Ir+2] (mixture of isomers) [Ir-12]	19.11%		cytostatic activity on A2780 cells in SRB assay (in words) [1]: biologically inactive
Cc1c(C)c(C)[c-](C)c1C.F[P-](F)(F)(F)(F)F.O=C(OCC1OC(c2nnc(-c3ccccn3)o2)C(OC(=O)c2ccccc2)C(OC(=O)c2ccccc2)C1OC(=O)c1ccccc1)c1ccccc1.[Cl][Rh+2] (mixture of isomers) [Rh-3]	39.86%	1.60	
Cc1c(C)c(C)[c-](C)c1C.F[P-](F)(F)(F)(F)F.O=C(OCC1OC(c2nnc(-c3ccccn3)o2)C(OC(=O)c2ccccc2)C(OC(=O)c2ccccc2)C1OC(=O)c1ccccc1)c1ccccc1.[Cl][Rh+2] (mixture of isomers) [Rh-4]	35.30%	1.64	
Cc1c(C)c(C)[c-](C)c1C.F[P-](F)(F)(F)(F)F.O=C(OC1COC(c2nnc(-c3ccccn3)o2)C(OC(=O)c2ccccc2)C1OC(=O)c1ccccc1)c1ccccc1.[Cl][Rh+2] (mixture of isomers) [Rh-5]	51.28%	1.8	Maximum Inhibition (%) ID8 [3]: 21.87%; cytostatic activity on ID8 cells, SRB assay (in words) [5]: mild cytostatic activity; ID8 Max. Inh. (%) [5]: 75.25%
Cc1c(C)c(C)[c-](C)c1C.F[P-](F)(F)(F)(F)F.O=C(OCC1OC(n2cc(-c3ccccn3)nn2)C(OC(=O)c2ccccc2)C(OC(=O)c2ccccc2)C1OC(=O)c1ccccc1)c1ccccc1.[Cl][Rh+2] (mixture of isomers) [Rh-6]	59%	1.85	Maximum Inhibition (%) ID8 [3]: 28.28%; pIC50 ([1]; SRB assay, 48 h): 4.60; cytostatic activity on ID8 cells, SRB assay (in words) [5]: mild cytostatic activity; ID8 Max. Inh. (%) [5]: 43.70%
dichloro(η^6-p-cymene)osmium(II) dimer [Os-dimer]			cytostatic activity on A2780 cells in SRB assay (in words) [1]: inactive; cytostatic activity on ID8 cells, SRB assay (in words) [5]: inactive
